PubChem BioAssay (NCI)
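GI50 = concentration required for 50% inhibition of growth. TGI denotes the concentration required for complete inhibition of growth.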

Key:
Experiment in all cases: DTP human tumour cell line panel, 384-well format
SK-OV-3 ovarian = test system: SK-OV-3 ovarian
DU-145 prostate = test system: DU-145 prostate
RXF 393 renal = test system: RXF 393 renal
SF-268 CNS = test system: SF-268 CNS
SF-295 CNS = test system: SF-295 CNS
NCI-H460 NSCLC = test system: NCI-H460 NSCLC
MCF7 breast = test system: MCF7 breast
NCI-H522 lung = test system: NCI-H522 lung
OVCAR-4 ovarian = test system: OVCAR-4 ovarian
CAKI-1 renal = test system: CAKI-1 renal
NCI-H23 lung = test system: NCI-H23 lung
BT-549 breast = test system: BT-549 breast
SNB-75 CNS = test system: SNB-75 CNS
M14 melanoma = test system: M14 melanoma
MDA-MB-468 breast = test system: MDA-MB-468 breast
SF-539 CNS = test system: SF-539 CNS
CCRF-CEM leukemia = test system: CCRF-CEM leukemia
MDA-MB-435 melanoma = test system: MDA-MB-435 melanoma
NCI/ADR-RES ovarian = test system: NCI/ADR-RES ovarian
OVCAR-8 ovarian = test system: OVCAR-8 ovarian
NCI-H226 lung = test system: NCI-H226 lung
SK-MEL-28 melanoma = test system: SK-MEL-28 melanoma
T-47D breast = test system: T-47D breast
TK-10 renal = test system: TK-10 renal
OVCAR-3 ovarian = test system: OVCAR-3 ovarian
SW-620 colon = test system: SW-620 colon
HS 578T breast = test system: HS 578T breast
U251 glioblastoma = test system: U251 glioblastoma
MOLT-4 leukemia = test system: MOLT-4 leukemia
IGROV1 ovarian = test system: IGROV1 ovarian
COLO 205 colon = test system: COLO 205 colon
786-0 renal = test system: 786-0 renal
NCI-H322M lung = test system: NCI-H322M lung
MDA-MB-231 breast = test system: MDA-MB-231 breast
RPMI-8226 leukemia = test system: RPMI-8226 leukemia
MALME-3M melanoma = test system: MALME-3M melanoma
KM12 colon = test system: KM12 colon
SNB-19 CNS = test system: SNB-19 CNS
SK-MEL-5 melanoma = test system: SK-MEL-5 melanoma
ACHN renal = test system: ACHN renal
HCT-116 colon = test system: HCT-116 colon
A549 NSCLC = test system: A549 NSCLC
UO-31 renal = test system: UO-31 renal
PC-3 prostate = test system: PC-3 prostate
A498 renal = test system: A498 renal
HL-60(TB) leukemia = test system: HL-60(TB) leukemia
HOP-62 NSCLC = test system: HOP-62 NSCLC
HOP-92 NSCLC = test system: HOP-92 NSCLC
UACC-62 melanoma = test system: UACC-62 melanoma
EKVX NSCLC = test system: EKVX NSCLC
LOX IMVI melanoma = test system: LOX IMVI melanoma
HCC-2998 colon = test system: HCC-2998 colon
HCT-15 colon = test system: HCT-15 colon
UACC-257 melanoma = test system: UACC-257 melanoma
OVCAR-5 ovarian = test system: OVCAR-5 ovarian
SN12C renal = test system: SN12C renal
SR leukemia = test system: SR leukemia
HT29 colon = test system: HT29 colon

SMILES: CN1CCN(c2ccc(C(=O)Nc3n[nH]c4ccc(Cc5cc(F)cc(F)c5)cc34)c(NC3CCOCC3)c2)CC1
- GI50 (SK-OV-3 ovarian): 1430 nM
- TGI (SK-OV-3 ovarian): 2760 nM
- GI50 (DU-145 prostate): 1550 nM
- TGI (DU-145 prostate): 2890 nM
- GI50 (RXF 393 renal): 825 nM
- TGI (RXF 393 renal): 2200 nM
- GI50 (SF-268 CNS): 1600 nM
- TGI (SF-268 CNS): 2970 nM
- GI50 (SF-295 CNS): 1680 nM
- TGI (SF-295 CNS): 3050 nM
- GI50 (NCI-H460 NSCLC): 1570 nM
- TGI (NCI-H460 NSCLC): 2950 nM
- GI50 (MCF7 breast): 1140 nM
- TGI (MCF7 breast): 2370 nM
- GI50 (NCI-H522 lung): 1400 nM
- TGI (NCI-H522 lung): 2710 nM
- GI50 (OVCAR-4 ovarian): 1020 nM
- TGI (OVCAR-4 ovarian): 2230 nM
- GI50 (CAKI-1 renal): 1630 nM
- TGI (CAKI-1 renal): 3000 nM
- GI50 (NCI-H23 lung): 1230 nM
- TGI (NCI-H23 lung): 2480 nM
- GI50 (BT-549 breast): 1730 nM
- TGI (BT-549 breast): 3120 nM
- GI50 (SNB-75 CNS): 1370 nM
- TGI (SNB-75 CNS): 2670 nM
- GI50 (M14 melanoma): 1690 nM
- TGI (M14 melanoma): 3060 nM
- GI50 (MDA-MB-468 breast): 1120 nM
- TGI (MDA-MB-468 breast): 2330 nM
- GI50 (SF-539 CNS): 1680 nM
- TGI (SF-539 CNS): 3060 nM
- GI50 (CCRF-CEM leukemia): 1870 nM
- TGI (CCRF-CEM leukemia): 3300 nM
- GI50 (MDA-MB-435 melanoma): 1690 nM
- TGI (MDA-MB-435 melanoma): 3070 nM
- GI50 (NCI/ADR-RES ovarian): 1550 nM
- TGI (NCI/ADR-RES ovarian): 2900 nM
- GI50 (OVCAR-8 ovarian): 1660 nM
- TGI (OVCAR-8 ovarian): 3040 nM
- GI50 (NCI-H226 lung): 727 nM
- TGI (NCI-H226 lung): 2070 nM
- GI50 (SK-MEL-28 melanoma): 1670 nM
- TGI (SK-MEL-28 melanoma): 3040 nM
- GI50 (T-47D breast): 1350 nM
- TGI (T-47D breast): 2650 nM
- GI50 (TK-10 renal): 1570 nM
- TGI (TK-10 renal): 2930 nM
- GI50 (OVCAR-3 ovarian): 1050 nM
- TGI (OVCAR-3 ovarian): 2290 nM
- GI50 (SW-620 colon): 1490 nM
- TGI (SW-620 colon): 2840 nM
- GI50 (HS 578T breast): 1530 nM
- TGI (HS 578T breast): 2860 nM
- GI50 (U251 glioblastoma): 1680 nM
- TGI (U251 glioblastoma): 3060 nM
- GI50 (MOLT-4 leukemia): 1360 nM
- TGI (MOLT-4 leukemia): 2650 nM
- GI50 (IGROV1 ovarian): 1010 nM
- TGI (IGROV1 ovarian): 2210 nM
- GI50 (COLO 205 colon): 1720 nM
- TGI (COLO 205 colon): 3120 nM
- GI50 (786-0 renal): 1510 nM
- TGI (786-0 renal): 2850 nM
- GI50 (NCI-H322M lung): 1470 nM
- TGI (NCI-H322M lung): 2790 nM
- GI50 (MDA-MB-231 breast): 1230 nM
- TGI (MDA-MB-231 breast): 2480 nM
- GI50 (RPMI-8226 leukemia): 1350 nM
- TGI (RPMI-8226 leukemia): 2650 nM
- GI50 (MALME-3M melanoma): 1270 nM
- TGI (MALME-3M melanoma): 2530 nM
- TGI (KM12 colon): 1370 nM
- GI50 (SNB-19 CNS): 1700 nM
- TGI (SNB-19 CNS): 3110 nM
- GI50 (SK-MEL-5 melanoma): 1590 nM
- TGI (SK-MEL-5 melanoma): 2940 nM
- GI50 (ACHN renal): 1540 nM
- TGI (ACHN renal): 2880 nM
- GI50 (HCT-116 colon): 1500 nM
- TGI (HCT-116 colon): 2850 nM
- GI50 (A549 NSCLC): 1410 nM
- TGI (A549 NSCLC): 2730 nM
- GI50 (UO-31 renal): 1590 nM
- TGI (UO-31 renal): 2950 nM
- GI50 (PC-3 prostate): 1230 nM
- TGI (PC-3 prostate): 2480 nM
- GI50 (A498 renal): 1710 nM
- TGI (A498 renal): 3090 nM
- GI50 (HL-60(TB) leukemia): 1830 nM
- TGI (HL-60(TB) leukemia): 3240 nM
- GI50 (HOP-62 NSCLC): 1430 nM
- TGI (HOP-62 NSCLC): 2750 nM
- GI50 (HOP-92 NSCLC): 1140 nM
- TGI (HOP-92 NSCLC): 2360 nM
- GI50 (UACC-62 melanoma): 1600 nM
- TGI (UACC-62 melanoma): 2960 nM
- GI50 (EKVX NSCLC): 1200 nM
- TGI (EKVX NSCLC): 2460 nM
- GI50 (LOX IMVI melanoma): 1530 nM
- TGI (LOX IMVI melanoma): 2870 nM
- GI50 (HCC-2998 colon): 1030 nM
- TGI (HCC-2998 colon): 2220 nM
- GI50 (HCT-15 colon): 1160 nM
- TGI (HCT-15 colon): 2410 nM
- GI50 (UACC-257 melanoma): 1550 nM
- TGI (UACC-257 melanoma): 2900 nM
- GI50 (OVCAR-5 ovarian): 1480 nM
- TGI (OVCAR-5 ovarian): 2840 nM
- GI50 (SN12C renal): 1210 nM
- TGI (SN12C renal): 2480 nM
- GI50 (SR leukemia): 24.3 nM
- TGI (SR leukemia): 55.4 nM
- GI50 (HT29 colon): 1300 nM
- TGI (HT29 colon): 2610 nM
